Read-outs that look alike come from different tables or passages of the source.
Tests used:
Format in all cases: cell-based
[1] = test system: LNCaP_Vancouver prostate cells; experiment: In Vitro LNCaP Vancouver Prostate Cell Proliferation Assay in Lipid Reduced Medium; conditions: 10% lipid reduced serum, 96 h, ATP-glow luminescence; for IC50: Prostate cell, read-out: pIC50 LNCaP_Vancouver prostate cell (converted)
Protocol: LNCaP_Vancouver prostate cells were obtained from the Vancouver Prostate Cancer Centre.
(§1) The next day 10 μl of test compound/DMSO diluted in medium was added (3E-5M, 1E-5M, 3E-6M,1E-6M, 3E-7M, 1E-7M, 3E-8M, 1E-8M final concentration). Compounds were tested in duplicate. After 96 h incubation at 37° C., 5% CO2 25 μl ATP-glow mix was added. The plate was incubated for 30 min at 37° C. and luminescence was measured with the Envision.
(§2) Analysis: Determination of pIC50 Values
(§3) pIC50 values were calculated as follows. Raw data generated by the instruments were normalized to % Controlmin values, which were calculated as: % Controlmin=100*(x−mLC)/(mHC−mLC),
(§4) where mLC and mHC are the means of the low control wells and high control wells on the plate, after manual exclusion of outliers. The relation between the % Controlmin values and concentration was fitted to a 4-parameter logistic curve using a non-linear least squares regression method to determine the pIC50 value. Outlying data points were excluded manually to get a correct fit. The pIC50 corresponds to −log 10(IC50), if the IC50 is expressed in molar units (http://www.ncbi.nlm.nih.qovibooks/NBK91994). The IC50 parameter was always determined by non-linear regression, but one or more of the other parameters may have been held fixed on a relevant input value, such as 0 for the bottom values.

[2] = test system: A2780 ovarian cells; experiment: A2780 Ovarian Cell Proliferation Assay in Lipid Reduced Medium, with and without Palmitate (MTT); conditions: Homo sapiens, 10% lipid-reduced serum, 96 h
Protocol: The biological assays described below correspond to comparative assays for ovarian cell proliferation.
2500 cells were seeded in a 96-well clear well plate in 200 μL RPM11640 with 10% Fetal Calf Serum (Hyclone), and incubated at 37° C., 5% CO2, Blanks were wells without cells. The next day the culture medium was aspirated and replaced by 160 μL culture medium with 10% Lipid-Reduced Serum (LRS, Hyclone). […] After 96 h incubation, an MTT assay was performed.
2500 cells were seeded in a 96-well clear well plate in 200 μL RPM11640 with 10% Fetal Calf Serum (Hyclone), and incubated at 37° C., 5% CO2. Blanks were wells without cells. The next day the culture medium was aspirated and replaced by 160 μL culture medium with 10% Lipid-Reduced Serum (LRS, Hyclone). 20 μL test compound (at concentrations of 30 μM, 10 μM, 3 μM, 1 μM, 0.30 μM, 0.10 μM, 0.03 μM and 0.01 μM)/DMSO dilution followed by 20 μL ethanol-BSA solution were added to a final concentrations of 0.2% DMSO, 0.2% fatty-acid-free BSA, 0.25% ethanol. After 96 h incubation an MTT assay was performed.
Raw data generated by the instrument were normalized to % Controlmin values, which were calculated as: % Controlmin=100*(x−mLC)/(mHC−mLC)
where mLC and mHC were the means of the low control wells and high control wells on the plate, after manual exclusion of outliers. A plot of Controlmin versus test compound concentration was fitted to a 4-parameter logistic curve using a non-linear least squares regression method.

[3] = test system: PC-3M-Luc-C6 prostate cells; experiment: In Vitro PC-3M-Luc-C6 Prostate Cell Proliferation Assay in Lipid Reduced Medium; conditions: 10% lipid reduced serum, 96 h, ATP-glow luminescence; for IC50: Prostate cell, read-out: pIC50 PC-3M-Luc-C6 prostate cell (converted)
Protocol: PC-3M-Luc-C6 prostate cells were obtained from Xenogen Corporation. Cells were maintained in MEM supplemented with 10% Fetal Calf Serum (FCS, Hyclone), 2 mM glutamine, 1 mM sodium pyruvate, 1% BME vitamins (available from for example, Sigma Aldrich), 0.1 mM non Essential Amino Acid and 50 μg/ml Gentamicin. The cells were passaged twice a week.
as §1, with “μl” for “μl of”
as §2, §3, §4

[4] = 25 μM palmitate added (control), read-out: pIC50 With Palmitate (converted)
[5] = no palmitate, read-out: pIC50 Without Palmitate (converted)

| SMILES | IC50 [1] | IC50 [2, 4] | IC50 [2, 5] | pIC50 LNCaP_Vancouver prostate cell [1] | pIC50 PC-3M-Luc-C6 prostate cell [3] | IC50 [3] |
| --- | --- | --- | --- | --- | --- | --- |
| Cn1cc(-c2ccc(-c3ccc(C4=NC(C)(C)C(=O)N4CC4CN(C(=O)C5CC5)C4)c(F)c3)cc2)cn1 [Compound 33, 1-((1-(cyclopropanecarbonyl)azetidin-3-yl)methyl)-2-(3-fluoro-4′-(1-methyl-1H-pyrazol-4-yl)-[1,1′-biphenyl]-4-yl)-4,4-dimethyl-1H-imidazol-5(4H)-one] | 2040 nM | > 10000 nM | 245 nM |  |  |  |
| CC1(C)N=C(c2ccc(-c3ccc4cccc(F)c4c3)cc2)N(CC2CN(C(=O)C3CC3)C2)C1=O [Compound 40, 1-((1-(cyclopropanecarbonyl)azetidin-3-yl)methyl)-2-(4-(8-fluoronaphthalen-2-yl)phenyl)-4,4-dimethyl-1H-imidazol-5(4H)-one] | 2040 nM | 5620 nM | 468 nM |  |  |  |
| CC1(C)N=C(c2ccc(-c3ccc4cncnc4c3)cc2F)N(CC2CN(C(=O)C3CC3)C2)C1=O [Compound 43, 1-((1-(cyclopropanecarbonyl)azetidin-3-yl)methyl)-2-(2-fluoro-4-(quinazolin-7-yl)phenyl)-4,4-dimethyl-1H-imidazol-5(4H)-one] |  |  |  | 5.63 | 6.06 |  |
| CC1(C)N=C(c2ccc(-c3ccc(-c4ccncc4)cc3)cc2F)N(C[C@@H]2CCN(C(=O)C3CC3)C2)C1=O [Compound 46, (R)-1-((1-(cyclopropanecarbonyl)pyrrolidin-3-yl)methyl)-2-(3-fluoro-4′-(pyridin-4-yl)-[1,1′-biphenyl]-4-yl)-4,4-dimethyl-1H-imidazol-5(4H)-one] | 407 nM | 9550 nM | 52.5 nM |  |  |  |
| CC1(C)N=C(c2ccc(-c3cccc4ncccc34)cc2F)N(C[C@@H]2CCN(C(=O)C3CC3)C2)C1=O [Compound 47, (R)-1-((1-(cyclopropanecarbonyl)pyrrolidin-3-yl)methyl)-2-(2-fluoro-4-(quinolin-5-yl)phenyl)-4,4-dimethyl-1H-imidazol-5(4H)-one] | 3550 nM | ~10000 nM | ~933 nM |  |  |  |
| CC1(C)N=C(c2ccc(-c3cnc4ccccc4c3)cc2F)N(C[C@@H]2CCN(C(=O)C3CC3)C2)C1=O [Compound 48, (R)-1-((1-(cyclopropanecarbonyl)pyrrolidin-3-yl)methyl)-2-(2-fluoro-4-(quinolin-3-yl)phenyl)-4,4-dimethyl-1H-imidazol-5(4H)-one] | 3980 nM | > 10000 nM | 537 nM |  |  |  |
| Cn1ncc2cc(-c3ccc(C4=NC(C)(C)C(=O)N4C[C@@H]4CCN(C(=O)C5CC5)C4)c(F)c3)ccc21 [Compound 53, (R)-1-((1-(cyclopropanecarbonyl)pyrrolidin-3-yl)methyl)-2-(2-fluoro-4-(1-methyl-1H-indazol-5-yl)phenyl)-4,4-dimethyl-1H-imidazol-5(4H)-one] | 724 nM |  |  |  |  | 132 nM |
| CC1(C)N=C(c2ccc(-c3ccc4cc(F)ccc4c3)cc2F)N(CC2CN(C(=O)C3CC3)C2)C1=O [Compound 54, 1-((1-(cyclopropanecarbonyl)azetidin-3-yl)methyl)-2-(2-fluoro-4-(6-fluoronaphthalen-2-yl)phenyl)-4,4-dimethyl-1H-imidazol-5(4H)-one] | 407 nM |  |  |  |  | 129 nM |
| CC1(C)N=C(c2ccc(-c3ccc4cccc(F)c4c3)cc2F)N(CC2CN(C(=O)C3CC3)C2)C1=O [Compound 55, 1-((1-(cyclopropanecarbonyl)azetidin-3-yl)methyl)-2-(2-fluoro-4-(8-fluoronaphthalen-2-yl)phenyl)-4,4-dimethyl-1H-imidazol-5(4H)-one] | 120 nM |  |  |  |  | 43.7 nM |
| CC1(C)N=C(c2ccc(-c3ccc4cnccc4c3)cc2F)N(CC2CN(C(=O)C3CC3)C2)C1=O [Compound 56, 1-((1-(cyclopropanecarbonyl)azetidin-3-yl)methyl)-2-(2-fluoro-4-(isoquinolin-6-yl)phenyl)-4,4-dimethyl-1H-imidazol-5(4H)-one] | 339 nM |  |  |  |  | 63.1 nM |
| CC1(C)N=C(c2ccc(-c3nc4ccccc4[nH]3)cc2F)N(C[C@@H]2CCN(C(=O)C3CC3)C2)C1=O [Compound 61, (R)-2-(4-(1H-benzo[d]imidazol-2-yl)-2-fluorophenyl)-1-((1-(cyclopropanecarbonyl)pyrrolidin-3-yl)methyl)-4,4-dimethyl-1H-imidazol-5(4H)-one] | 5010 nM |  |  |  |  |  |
| CC1(C)N=C(c2ccc(-c3c[nH]c4ccccc34)cc2F)N(CC2CN(C(=O)C3CC3)C2)C1=O [Compound 62, 1-((1-(cyclopropanecarbonyl)azetidin-3-yl)methyl)-2-(2-fluoro-4-(1H-indol-3-yl)phenyl)-4,4-dimethyl-1H-imidazol-5(4H)-one] | 776 nM |  |  |  |  | 1200 nM |
| Cc1cc(-c2ccc3c(cnn3C)c2)ccc1C1=NC(C)(C)C(=O)N1C[C@@H]1CCN(C(=O)C2(C)CC2)C1 [Compound 80, (R)-4,4-dimethyl-2-(2-methyl-4-(1-methyl-1H-indazol-5-yl)phenyl)-1-((1-(1-methylcyclopropanecarbonyl)pyrrolidin-3-yl)methyl)-1H-imidazol-5(4H)-one] |  | > 10000 nM | 45.7 nM |  |  | 17 nM |

More lines, now with the values ahead:

| IC50 [1] | IC50 [2, 4] | IC50 [2, 5] | pIC50 LNCaP_Vancouver prostate cell [1] | pIC50 PC-3M-Luc-C6 prostate cell [3] | IC50 [3] | SMILES |
| --- | --- | --- | --- | --- | --- | --- |
|  | > 10000 nM | 229 nM |  |  | 661 nM | Cn1cc(-c2ccc(-c3ccc(C4=NC(C)(C)C(=O)N4CC4CN(C(=O)C5(O)CC5)C4)c(F)c3)cc2)cn1 [Compound 81, 2-(3-fluoro-4′-(1-methyl-1H-pyrazol-4-yl)-[1,1′-biphenyl]-4-yl)-1-((1-(1-hydroxycyclopropanecarbonyl)azetidin-3-yl)methyl)-4,4-dimethyl-1H-imidazol-5(4H)-one] |
|  | 4370 nM | 14.5 nM |  |  | 64.6 nM | Cc1cc(-c2ccc3cc(F)ccc3c2)ccc1C1=NC(C)(C)C(=O)N1CC1CN(C(=O)C2(C)CC2)C1 [Compound 82] |
|  | > 10000 nM | 25.7 nM |  |  | 42.7 nM | Cc1cc(-c2ccc3c(c2)ncn3C)ccc1C1=NC(C)(C)C(=O)N1CC1CN(C(=O)C2(C)CC2)C1 [Compound 83, 4,4-dimethyl-2-(2-methyl-4-(1-methyl-1H-benzo[d]imidazol-5-yl)phenyl)-1-((1-(1-methylcyclopropanecarbonyl)azetidin-3-yl)methyl)-1H-imidazol-5(4H)-one] |
|  | 4370 nM | 3.31 nM |  |  | 7.76 nM | Cc1cc(-c2ccc(-c3cnn(C)c3)cc2)ccc1C1=NC(C)(C)C(=O)N1C[C@@H]1CCN(C(=O)C2(C)CC2)C1 [Compound 84] |
|  | > 10000 nM | 3.89 nM |  |  | ~10.7 nM | Cc1cc(-c2ccc3c(c2)ncn3C)ccc1C1=NC(C)(C)C(=O)N1C[C@@H]1CCN(C(=O)C2(C)CC2)C1 [Compound 85, (R)-4,4-dimethyl-2-(2-methyl-4-(1-methyl-1H-benzo[d]imidazol-5-yl)phenyl)-1-((1-(1-methylcyclopropanecarbonyl)pyrrolidin-3-yl)methyl)-1H-imidazol-5(4H)-one] |
|  | ~7760 nM | 3.98 nM |  |  | 6.17 nM | Cc1cc(-c2ccc3cc(F)ccc3c2)ccc1C1=NC(C)(C)C(=O)N1C[C@@H]1CCN(C(=O)C2(C)CC2)C1 [Compound 86, (R)-2-(4-(6-fluoronaphthalen-2-yl)-2-methylphenyl)-4,4-dimethyl-1-((1-(1-methylcyclopropanecarbonyl)pyrrolidin-3-yl)methyl)-1H-imidazol-5(4H)-one] |

— patent US10413545B2, “Imidazolin-5-one derivative useful as FASN inhibitors for the treatment of cancer” (Janssen Pharmaceutica NV, priority 2013, dated 2019)
